Series [1] concerns β-amyloid protein (Aβ) secreted by E35 cells (H4 cells with APP751 gene). In words: Screening system using E35 cells for inhibition of production/secretion of β-amyloid protein (sandwich ELISA of Aβ in culture medium). Format: cell-based, human. Conditions: Homo sapiens, 24 hours with compound, Aβ in culture supernatant by ELISA, read-out: Inhibitory Activity for Production of A(EC50). The method, boiled down: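 H4 glioma cells expressing human wild-type APP751 (E35) treated 24 h with compound (0.05% DMSO); secreted Aβ quantified by sandwich ELISA (25-1 capture, biotinylated MA32-40 detection) against a calibration curve. EC50 is 50% inhibition versus untreated cells; cytotoxicity checked separately in H4 cells by Alamar Blue after 72 h.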
(ELISA stands for enzyme-linked immunosorbent assay.)

For series [2], the system named is intracerebral amount of Aβ. In words: Assessment of β-amyloid protein production inhibitory action and immunosuppressing action in vivo. To be noted: male SD rats, oral; single dose, cerebrum Aβ after 3 hours; repeated administration for 7 days for immunosuppression; listed as (1-2). From the text: As an example of the compound (1), the compounds described in Example 22, Example 85, Example 101, Example 106 or Example 118 (respectively, compound represented by the above formula (1-1), (1-2), (1-3), (1-4) or (1-5), which will be hereinafter referred respectively to compound (1-1), (1-2), (1-3), (1-4) or (1-5)), or the control compound LY, was suspended in a 0.5% aqueous solution of methylcellulose, and the suspension was orally administered in a single dose to male SD rats (about 5 weeks old). For the solvent control group, a 0.5% aqueous solution of methylcellulose was administered alone. After 3 hours of administration, the brain was excised, and the cerebrum was collected. The cerebrum was homogenized with a 42% aqueous solution of formic acid, and was centrifuged at 100,000×g for 60 minutes. The resulting supernatant was neutralized with 1 M Tris, and the Aβ concentration in these samples were measured using the sandwich type ELISA method as described in Test Example 1. Furthermore, the compound (1-1) to (1-5) or control compound LY was orally administered to male SD rats repeatedly for 7 days, and the rats were subjected to histopathological and serological examinations, so as to assess the immunosuppressing effect of the compound.

Compound `Cc1cc(C(=O)NCO)ncc1C(c1cc(F)ccc1F)S(=O)(=O)c1ccc(F)cc1` (stereo not drawn) [Example 85, 5-[(2,5-difluorophenyl)[(4-fluorophenyl)sulfonyl]methyl]-N-(1-hydroxymethyl)-4-methylpyridine-2-carboxamide] displayed a melting point of 164 to 166 °C. The EC50 in series [1] was at most 5 nM. Besides, the “difference between the dose exhibiting a statistically significant decrease in the intracerebral amount of Aβ and the dose exhibiting an immunosuppressing effect” value in series [2] is on record as “sufficient differences were recognized”.

The term EC50 denotes the concentration giving half of the maximal effect. The melting point is the temperature of the solid-liquid transition.
